Experimental data published in ChEMBL document CHEMBL5223081 (J Med Chem, 2021).
Each block holds one compound with its values, some of them ahead of it.

How the values were obtained:
Adenosine receptor A3 = target: T1, Adenosine receptor A3 (Homo sapiens, UniProt P0DMS8); experiment: Binding affinity to human A3 adenosine receptor assessed as inhibition constant
T1 sequence (P0DMS8 whole entry): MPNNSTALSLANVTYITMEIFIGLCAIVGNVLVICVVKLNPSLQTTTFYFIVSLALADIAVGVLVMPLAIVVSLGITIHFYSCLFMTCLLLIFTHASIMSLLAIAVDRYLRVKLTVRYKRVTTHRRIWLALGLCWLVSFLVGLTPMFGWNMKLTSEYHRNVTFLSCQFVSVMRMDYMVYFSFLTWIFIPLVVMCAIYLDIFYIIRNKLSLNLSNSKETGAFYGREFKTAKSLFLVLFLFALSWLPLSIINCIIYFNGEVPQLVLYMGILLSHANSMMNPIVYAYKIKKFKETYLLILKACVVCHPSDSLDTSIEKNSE

[1] = Inhibition of human PDE5 derived from platelets by scintillation counter analysis
[2] = Aqueous solubility of compound; type: physicochemical
[3] = Inhibition of PDE2 derived from bovine heart by scintillation counter analysis; set-up: species or system Bos taurus
Homo sapiens [4] = organism: Homo sapiens; experiment: Selectivity index, ratio of Ki for human A1 receptor to Ki for human A3 receptor assessed as fold change
Homo sapiens [5] = organism: Homo sapiens; experiment: Selectivity index, ratio of Ki for human A2A receptor to Ki for human A3 receptor assessed as fold change
Homo sapiens [6] = organism: Homo sapiens; experiment: Selectivity index, ratio of Ki for human A2 receptor to Ki for A1 receptor assessed as fold change
Homo sapiens [7] = organism: Homo sapiens; experiment: Selectivity index, ratio of antagonist activity at A1 receptor to antagonist activity at A2 receptor
[8] = Inhibition of phosphodiesterase (unknown origin); set-up: species or system Homo sapiens
[9] = Inhibition of ryanodine receptor (unknown origin); set-up: species or system Homo sapiens
[10] = Inhibition of human glycogen phosphorylase
[11] = Inhibition of Glycogen phosphorylase (unknown origin); set-up: species or system Homo sapiens
Guanine deaminase = target: T2, Guanine deaminase (Homo sapiens, UniProt Q9Y2T3); experiment: Inhibition of guanine deaminase (unknown origin)
T2 sequence (Q9Y2T3 whole entry): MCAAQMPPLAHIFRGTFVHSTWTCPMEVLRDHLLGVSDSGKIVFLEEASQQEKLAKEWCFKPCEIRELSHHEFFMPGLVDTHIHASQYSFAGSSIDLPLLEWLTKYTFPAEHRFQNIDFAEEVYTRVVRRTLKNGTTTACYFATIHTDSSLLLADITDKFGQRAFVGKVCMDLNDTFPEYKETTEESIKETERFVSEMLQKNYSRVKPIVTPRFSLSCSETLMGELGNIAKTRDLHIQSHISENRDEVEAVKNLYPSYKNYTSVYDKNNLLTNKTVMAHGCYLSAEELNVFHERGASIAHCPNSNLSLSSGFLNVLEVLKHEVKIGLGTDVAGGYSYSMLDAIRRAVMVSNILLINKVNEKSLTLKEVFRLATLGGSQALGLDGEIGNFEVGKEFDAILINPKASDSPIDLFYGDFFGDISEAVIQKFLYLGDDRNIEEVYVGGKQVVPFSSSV

[12] = target: Nuclear receptor subfamily 2 group E member 1 (Homo sapiens, UniProt Q9Y466); experiment: Inhibition of tlx (unknown origin)
[13] = Inhibition of PI3-kinase (unknown origin); set-up: species or system Homo sapiens
[14] = Inhibition of human glycogen phosphorylase in presence of 0.2 mM of AMP
[15] = target: GABA-A receptor; anion channel; experiment: Inhibition of GABAA receptors (unknown origin); type: protein-complex assay, Homo sapiens
[16] = Inhibition of bile export protein (unknown origin); set-up: species or system Homo sapiens
[17] = target: T3, Palmitoleoyl-protein carboxylesterase NOTUM (Homo sapiens, UniProt Q6P988); experiment: Inhibition of notum (unknown origin)
T3 sequence (Q6P988 whole entry): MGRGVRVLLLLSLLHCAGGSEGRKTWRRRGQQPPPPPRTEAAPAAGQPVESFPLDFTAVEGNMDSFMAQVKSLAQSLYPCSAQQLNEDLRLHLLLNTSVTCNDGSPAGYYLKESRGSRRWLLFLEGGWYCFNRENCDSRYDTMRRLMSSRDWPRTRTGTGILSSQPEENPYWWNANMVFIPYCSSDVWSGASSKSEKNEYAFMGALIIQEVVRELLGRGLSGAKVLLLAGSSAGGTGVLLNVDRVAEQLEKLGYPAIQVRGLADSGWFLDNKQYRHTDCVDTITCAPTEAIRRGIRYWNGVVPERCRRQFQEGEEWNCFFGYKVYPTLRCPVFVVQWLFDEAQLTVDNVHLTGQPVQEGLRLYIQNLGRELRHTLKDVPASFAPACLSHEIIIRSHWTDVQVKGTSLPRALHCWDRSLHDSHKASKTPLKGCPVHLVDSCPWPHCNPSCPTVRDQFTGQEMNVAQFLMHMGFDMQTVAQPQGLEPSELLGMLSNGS

Chain of Nuclear receptor subfamily 2 group E member 1 (Q9Y466 whole entry): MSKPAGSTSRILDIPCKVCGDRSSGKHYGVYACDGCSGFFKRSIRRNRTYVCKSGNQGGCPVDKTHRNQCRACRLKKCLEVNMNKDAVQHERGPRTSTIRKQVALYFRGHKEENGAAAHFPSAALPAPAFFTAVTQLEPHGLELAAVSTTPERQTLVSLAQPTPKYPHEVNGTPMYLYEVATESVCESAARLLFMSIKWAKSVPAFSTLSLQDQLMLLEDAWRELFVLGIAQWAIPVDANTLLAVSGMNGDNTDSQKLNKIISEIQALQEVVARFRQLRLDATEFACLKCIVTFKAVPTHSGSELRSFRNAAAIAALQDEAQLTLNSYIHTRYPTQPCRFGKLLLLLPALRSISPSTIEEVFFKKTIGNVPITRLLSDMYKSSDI

- Ki (Adenosine receptor A3): 0.000433 µM
Structure (SMILES): CC[C@@H]1CN2C(=O)N(C)c3nc(-c4cc(Cl)cc(Cl)c4Cl)[nH]c3C2=N1

Structure (SMILES): CCCc1nn(C)c2c(=O)[nH]c(-c3cc(S(=O)(=O)N4CCN(C)CC4)ccc3OCC)nc12
- IC50 [1]: 0.01 µM

- solubility [2]: < 10 µg/mL
Structure (SMILES): CCCn1c(=O)c2c(nc(/C=C/c3ccc(OC)c(OC)c3)n2C)n(CCC)c1=O

Structure (SMILES): COc1ccc(Cc2nc(O)c3c(C)nc([C@@H](CCCc4ccccc4)[C@@H](C)O)n3n2)cc1OC
- IC50 [3]: 0.0047 µM

- solubility [2]: > 20 µM
Structure (SMILES): Cn1c(=O)c2[nH]c(-c3ccc(S(=O)(=O)O)cc3)nc2n(C)c1=O

- Ratio Ki (Homo sapiens [4]): 160
- Ratio Ki (Homo sapiens [5]): > 400
Structure (SMILES): CCCCn1c(=O)c2c(ncn2[C@@H]2O[C@H](C(=O)NC)[C@@H](O)[C@H]2O)n(CCCC)c1=O

- Ratio Ki (Homo sapiens [6]): 190
Structure (SMILES): CCCn1c(=O)c2nc(-c3ccc(OCC(N)=O)cc3O)[nH]c2n(CCC)c1=O

- Ratio Ki (Homo sapiens [6]): 400
Structure (SMILES): CCCn1c(=O)c2nc(C3CC4CC3C3OC43)[nH]c2n(CCC)c1=O (stereo unspecified)

- Ratio (Homo sapiens [7]): 10
Structure (SMILES): CCCn1cnc2c1c(=O)n(C)c(=O)n2C

- pIC50 [8]: < 4
- pEC50 [9]: < 4
- IC50 [10]: 92 µM
- pKi [11]: 4
- Ki (Guanine deaminase): 10 µM
- IC50 [12]: 7.94 µM
- pIC50 [13]: <= 4.1
- IC50 [14]: 360 µM
- pKi [15]: < 4
- pIC50 [16]: 4
- IC50 [17]: 100 µM
Structure (SMILES): Cn1c(=O)c2c(ncn2C)n(C)c1=O [CAFFEINE]
